What was measured:
[1] = target: T1, BCDX2 (RAD51B-RAD51C-RAD51D-XRCC2) (Homo sapiens, UniProt O15315+O43502+O43543+O75771); assay: cryo-EM structure ([…] Å and […] Å); assay type: binding; conditions: Mg2+, sample vitrified with ADP.AlFx or ADP.BeFx
T1 construct: four-subunit complex co-expressed in Sf9 cells; N-terminal TwinStrep-TEV tag on XRCC2 removed by TEV protease

[2] = target: T1, BCDX2 (RAD51B-RAD51C-RAD51D-XRCC2); assay: HPLC of nucleotides extracted from purified complex; assay type: binding; conditions: nucleotide co-purified with the complex; 2.5 mM Mg2+, pH 7.5; sites: RAD51B and RAD51C
[3] = target: T2, BCDX2 (RAD51B-RAD51C-RAD51D-XRCC2) (Homo sapiens, UniProt O15315+O43502+O43543+O75771, O15315:K114A, form not given); assay: as above; assay type: binding; conditions: RAD51B Walker A mutant; nucleotide co-purified with the complex; 2.5 mM Mg2+, pH 7.5
T2 construct: four-subunit complex co-expressed in Sf9 cells; N-terminal TwinStrep-TEV tag on XRCC2 removed by TEV protease

[4] = target: T2, BCDX2 (RAD51B-RAD51C-RAD51D-XRCC2); assay: as above; assay type: binding; conditions: RAD51B Walker A mutant; nucleotide co-purified with the complex; 2.5 mM Mg2+, pH 7.5; remark: listed apart in the source
[5] = target: T3, BCDX2 (RAD51B-RAD51C-RAD51D-XRCC2) (Homo sapiens, UniProt O15315+O43502+O43543+O75771, O43502:E161A, form not given); assay: as above; assay type: binding; conditions: RAD51C catalytic glutamate mutant; 2.5 mM Mg2+, pH 7.5
T3 construct: four-subunit complex co-expressed in Sf9 cells; N-terminal TwinStrep-TEV tag on XRCC2 removed by TEV protease

[6] = target: T1, BCDX2 (RAD51B-RAD51C-RAD51D-XRCC2); assay: as above; assay type: binding; conditions: nucleotide co-purified with the complex; 2.5 mM Mg2+, pH 7.5
[7] = target: T4, BCDX2 (RAD51B-RAD51C-RAD51D-XRCC2) (Homo sapiens, UniProt O15315+O43502+O43543+O75771, O15315:E144A, form not given); assay: ATPase assay, alpha-32P-ATP, TLC; assay type: biochemical; conditions: RAD51B catalytic glutamate mutant; 15 µM ATP, 1 µM complex, 2.5 mM Mg2+, pH 7.5, 37 °C
T4 construct: four-subunit complex co-expressed in Sf9 cells; N-terminal TwinStrep-TEV tag on XRCC2 removed by TEV protease

[8] = target: T5, BCDX2 (RAD51B-RAD51C-RAD51D-XRCC2) (Homo sapiens, UniProt O15315+O43502+O43543+O75771, O15315:E144A/O43502:E161A, form not given); assay: HPLC of nucleotides extracted from purified complex; assay type: binding; conditions: RAD51B and RAD51C catalytic glutamate double mutant; 2.5 mM Mg2+, pH 7.5
T5 construct: four-subunit complex co-expressed in Sf9 cells; N-terminal TwinStrep-TEV tag on XRCC2 removed by TEV protease
T5 sequence (O15315 1-345 E144A, form open): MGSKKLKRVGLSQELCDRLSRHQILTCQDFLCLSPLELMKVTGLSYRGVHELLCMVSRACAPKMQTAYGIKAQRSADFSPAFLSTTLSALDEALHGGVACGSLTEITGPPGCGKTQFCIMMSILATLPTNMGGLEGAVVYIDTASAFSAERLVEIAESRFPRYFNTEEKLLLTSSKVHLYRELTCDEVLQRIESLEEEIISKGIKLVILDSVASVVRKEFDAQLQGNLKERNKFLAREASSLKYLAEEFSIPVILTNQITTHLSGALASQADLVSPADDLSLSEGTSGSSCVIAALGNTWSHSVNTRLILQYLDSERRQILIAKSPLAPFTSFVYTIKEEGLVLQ
T5 sequence (O43502 whole entry E161A, form open): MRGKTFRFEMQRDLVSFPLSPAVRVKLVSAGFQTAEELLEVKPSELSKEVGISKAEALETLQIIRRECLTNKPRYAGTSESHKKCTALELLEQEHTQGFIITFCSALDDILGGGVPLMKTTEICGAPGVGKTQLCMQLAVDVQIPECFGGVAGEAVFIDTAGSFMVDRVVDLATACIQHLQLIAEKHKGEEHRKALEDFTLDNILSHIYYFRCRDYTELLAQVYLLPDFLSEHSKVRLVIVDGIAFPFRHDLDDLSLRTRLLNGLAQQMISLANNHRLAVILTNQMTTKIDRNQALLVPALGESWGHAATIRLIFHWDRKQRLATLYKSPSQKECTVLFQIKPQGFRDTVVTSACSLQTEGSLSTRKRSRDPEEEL
T5 sequence (O75771 whole entry, form open): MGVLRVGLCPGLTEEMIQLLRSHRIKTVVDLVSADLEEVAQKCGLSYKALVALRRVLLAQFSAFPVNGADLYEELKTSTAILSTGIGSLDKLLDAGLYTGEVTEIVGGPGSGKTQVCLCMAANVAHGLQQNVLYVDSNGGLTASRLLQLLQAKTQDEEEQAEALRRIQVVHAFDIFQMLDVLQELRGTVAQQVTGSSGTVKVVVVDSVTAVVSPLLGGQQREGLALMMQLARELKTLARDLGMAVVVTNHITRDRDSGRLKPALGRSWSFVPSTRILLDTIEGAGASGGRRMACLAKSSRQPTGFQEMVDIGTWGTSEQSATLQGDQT
T5 sequence (O43543 whole entry, form open): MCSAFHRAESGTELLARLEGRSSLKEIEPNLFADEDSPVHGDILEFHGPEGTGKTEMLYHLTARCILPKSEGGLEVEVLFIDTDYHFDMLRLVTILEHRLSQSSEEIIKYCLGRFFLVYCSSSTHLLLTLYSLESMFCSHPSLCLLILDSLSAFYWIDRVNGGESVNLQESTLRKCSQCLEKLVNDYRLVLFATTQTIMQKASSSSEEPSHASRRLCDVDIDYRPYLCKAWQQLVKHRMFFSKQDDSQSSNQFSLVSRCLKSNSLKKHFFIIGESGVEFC

T1 sequence (O15315 1-345): as the sequence (O15315 1-345 E144A, form open) above, with A144E counted along it
T1 sequence (O43502 whole entry): as the sequence (O43502 whole entry E161A, form open) above, with A161E counted along it
T1 sequence (O75771 whole entry): as the sequence (O75771 whole entry, form open) above
T1 sequence (O43543 whole entry): as the sequence (O43543 whole entry, form open) above
T2 sequence (O15315 1-345 K114A, form open): as the sequence (O15315 1-345 E144A, form open) above, with K114A, A144E counted along it
T2 sequence (O43502 whole entry, form open): as the sequence (O43502 whole entry E161A, form open) above, with A161E counted along it
T2 sequence (O75771 whole entry, form open): as the sequence (O75771 whole entry, form open) above
T2 sequence (O43543 whole entry, form open): as the sequence (O43543 whole entry, form open) above
T3 sequence (O15315 1-345, form open): as the sequence (O15315 1-345 E144A, form open) above, with A144E counted along it
T3 sequence (O43502 whole entry E161A, form open): as the sequence (O43502 whole entry E161A, form open) above
T3 sequence (O75771 whole entry, form open): as the sequence (O75771 whole entry, form open) above
T3 sequence (O43543 whole entry, form open): as the sequence (O43543 whole entry, form open) above
T4 sequence (O15315 1-345 E144A, form open): as the sequence (O15315 1-345 E144A, form open) above
T4 sequence (O43502 whole entry, form open): as the sequence (O43502 whole entry E161A, form open) above, with A161E counted along it
T4 sequence (O75771 whole entry, form open): as the sequence (O75771 whole entry, form open) above
T4 sequence (O43543 whole entry, form open): as the sequence (O43543 whole entry, form open) above

**Q.** Which results are given for Nc1ncnc2c1ncn2[C@@H]1O[C@H](COP(=O)(O)OP(=O)(O)O)[C@@H](O)[C@H]1O [ADP]?
**A.** cryo-EM structure (2.2 Å and 3.4 Å) ([1]; site: RAD51C nucleotide site): RAD51D and XRCC2 bound ATP whereas RAD51C bound ADP; nt of ADP bound per complex [2]: 1.9 ± 0.1 nt per complex; nt of ADP bound per complex [3]: 1.2 ± 0.1 nt per complex

**Q.** Which results are given for Nc1ncnc2c1ncn2[C@@H]1O[C@H](COP(=O)(O)OP(=O)(O)OP(=O)(O)O)[C@@H](O)[C@H]1O [ATP]?
**A.** nt of ATP bound per complex [4]: 1.8 ± 0.1 nt per complex; HPLC of nucleotides extracted from purified complex [5]: all nucleotide binding sites were fully occupied with ATP; nt of ATP bound per complex [6]: 2.1 ± 0.2 nt per complex; % reduction of ATPase activity relative to wild-type [7]: ~ 50%; cryo-EM structure (2.2 Å and 3.4 Å) ([1]; sites: RAD51D and XRCC2 nucleotide sites, co-purified nucleotide): RAD51D and XRCC2 bound ATP whereas RAD51C bound ADP; HPLC of nucleotides extracted from purified complex [8]: all nucleotide binding sites were fully occupied with ATP

Source: article PMC7614784, “Structure and function of the RAD51B-RAD51C-RAD51D-XRCC2 tumour suppressor” (Nature, 2023)
